Test results from patent US20100048713A1, “COMPOUNDS ACTING ON THE SEROTONIN TRANSPORTER” (Aarhus Universitet, priority 2006, published 2010).

Columns and labels:
[1] = target: T1, hSERT (Homo sapiens, UniProt P31645); assay: Binding assay on whole cells transfected with hSERT ([3H]-citalopram displacement); settings: for EC50: whole cell assay, 35 nM [3H]-citalopram, 60 min room temperature, table title: 45 min preincubation
T1 construct: expressed in transfected cells; the general 96-well protocol names Cos-1
Protocol: The pcDNA3 plasmid vector containing the hSERT gene was used for transfection (see FIG. 6).
(§1) The 96-well plate was washed with PBSCM to remove DMEM prior to the assay. […] The plate was subsequently incubated for 60 min at room temperature. The assay was terminated by washing once with PBSCM. The amount of accumulated [^3H]-citalopram was determined by solubilizing cells in scintillant (MicroScint 20) with direct counting of plates in a Packard TopCounter. Data was analyzed by GraphPad software.

[2] = target: T1, hSERT; assay: Dissociation assay with [3H]-citalopram and hSERT membrane preparations; assay type: binding; settings: for Stabilises dissociation of [3H]-citalopram: own effect (10 uM fluoxetine) (concentration which affects dissociation): 10 uM fluoxetine in dissociation buffer; for Stabilises dissociation of [3H]-citalopram: 15 uM citalopram (concentration which affects dissociation): 15 uM citalopram in dissociation buffer
Protocol: (§2) 17.5 μl Fugene-6 (Roche Molecular Biochemicals) were mixed with 280 μl Dulbecco's modified Eagle's medium, and incubated at room temperature for 5 minutes. 10 μg of plasmid were added and the mixture was further incubated at least 15 minutes. […] Prior to harvesting the dish was rinsed in PBS. Cells were harvested with a cell scraper in buffer 1 (50 mM Tris-base, 150 mM NaCl, 20 mM EDTA, pH 7.4). After centrifugation (3000 g at 4° C. for 10 mins), cells were suspended and homogenized with an IKA Ultra-Turrax from Rose Scientific Ltd (Edmonton, Alberta, Canada) for 20 s in buffer 1. Membranes were pelleted by ultracentrifugation (12 000 g at 4° C. for 15 min) and homogenization was repeated in buffer 1. Finally, after ultracentrifugation (12000 g, 4° C., 15 min) membranes were resuspended in 1 ml buffer 3 (50 mM Tris-base, 120 mM NaCl, 5 mM KCl, pH 7.4) and stored at −80° C.
Dissociation assay with [^3H]-citalopram and membrane preparations SERT-[^3H]-citalopram complex was formed by incubating hSERT membrane preparation and radioligand in buffer 3 during a 60 min incubation at 4° C. Radioligand was present at a concentration 10 times the Kd value. The time kinetic of dissociation was followed by adding 10 μL complex solution to 250 μL buffer 3 in 96-well plates and incubating subsequently for increasing time intervals at RT. Reactions were terminated by filtration through GF/C glass-fibre filters (Unifilter, Perkin Elmer Life Sciences), preincubated with 40 μl 0.5 % polyethyleneimine, using a Pachard Bell cell harvester, and subsequently washed three times with water. Filters were soaked in 40 μl Microscint 20 scintillation liquid (Pachard Bell). Bound radioactivity was determined by direct counting of plates using a Packard Bell microplate scintillation counter. Dissociation curves were obtained by plotting residual binding vs. time of dissociation.
The interaction of the allosteric ligand with the allosteric mechanism used by citalopram was studied by combining allosteric ligand and citalopram in the dissociation buffer. The interaction of the allosteric ligand with the radioligand was studied by combining the allosteric ligand and fluoxetine in the dissociation buffer.
(§3) Dissociation of [^3H]-citalopram from the serotonin transporter has been studied using membrane preparations from SERT-expressing cells. The off-rates of the radioligand were measured in the presence/absence of a fixed concentration of allosteric ligand. […] Additionally, the allosteric impact on the radioligand in the absence of citalopram, was studied by combining 10 μM fluoxetine and 200/2000 μM allosteric ligand in the dissociation buffer. […] The cells were incubated for 10 minutes before the assay was terminated by washing in PBSCM.

[3] = target: T1, hSERT; assay: Binding of [125I]-RTI-55 in whole cell assay, hSERT; settings: displacement of [125I]-RTI-55
Text: RTI-55 was used to test for the compounds of the present invention to act as displacers of cocain.
(§4) Because RTI-55 (and cocaine) acts as inhibitors of SERT and DAT, we also performed the binding assay in cells transfected with human DAT.

[4] = target: T1, hSERT; assay: 5-HT uptake assay, 10 min incubation without preincubation; assay type: cell-based; settings: 75 nM [3H]-5-HT, no preincubation
Protocol: Cells were grown for 48 h to confluency, and prior to uptake assay, plates were washed in PBSCM. All washing steps were carried out in an automatic plate washer. […] The assay was terminated by washing with PBSCM. The amount of accumulated [^3H]-5HT was determined by solubilizing cells in scintillant (MicroScint 20) with direct counting of plates in a Packard TopCounter. Data was analyzed by GraphPad software.
as §3

[5] = target: T1, hSERT; assay: 5-HT uptake assay with preincubation (whole cells); assay type: cell-based; settings: whole cell assay with preincubation (title 45 min, text 60 min), 75 nM [3H]-5-HT, 10 min
Protocol: 7 μl Fugene-6 was mixed with 112 μl Dulbecco's modified Eagle's medium, and incubated at room temperature for 5 minutes. 4 μg of plasmid were added and the mixture was further incubated at least 15 minutes. Cos-1 cells were trypsinized and suspended in growth media, and the plasmid/Fugene-6 mixture was added followed by dispersion into a 96-well plate.
as §1, with “assay. 50 μl PBSCM containing increasing concentrations of allosteric ligand were added to each well, and incubated for 60 min at room temperature under moderate agitation.” for “assay.”, “10” for “60”, “[^3H]-5-HT” for “[^3H]-citalopram”
We tested the allosteric ligands for their ability to inhibit/activate 5-HT-uptake in the whole-cell assay after 60 minutes preincubation.

[6] = target: T1, hSERT; assay: Binding of [3H]-citalopram to membrane preparations; settings: 35 nM [3H]-citalopram, 60 min RT
Protocol: as §2
A dilution series of the allosteric ligand was prepared in buffer 3 containing 70 nM [^3H]-citalopram. […] The mixture was incubated under moderate agitation at RT for 60 min. Reactions were terminated by filtration through GF/C glass-fibre filters (Unifilter, Perkin Elmer Life Sciences), preincubated with 40 μl 0.5 % polyethyleneimine, using a Pachard Bell cell harvester, and subsequently washed three times with water. Filters were soaked in 40 μl Microscint 20 scintillation liquid (Pachard Bell). Bound radioactivity was determined by direct counting of plates using a Packard Bell microplate scintillation counter. Displacing curves were obtained by plotting residual binding vs. log concentration of the displacing ligand.

[7] = target: T2, hDAT (Homo sapiens, UniProt Q01959); assay: Binding of [125I]-RTI-55 in whole cell assay, cells transfected with human DAT; settings: displacement of [125I]-RTI-55
T2 construct: expressed in transfected cells
Text: A binding assay as described in example 2, wherein the cocaine analogue [^125I] RTI-55 was used to test for the compounds of the present invention to act as displacers of cocain.
as §4

T2 sequence (Q01959 whole entry): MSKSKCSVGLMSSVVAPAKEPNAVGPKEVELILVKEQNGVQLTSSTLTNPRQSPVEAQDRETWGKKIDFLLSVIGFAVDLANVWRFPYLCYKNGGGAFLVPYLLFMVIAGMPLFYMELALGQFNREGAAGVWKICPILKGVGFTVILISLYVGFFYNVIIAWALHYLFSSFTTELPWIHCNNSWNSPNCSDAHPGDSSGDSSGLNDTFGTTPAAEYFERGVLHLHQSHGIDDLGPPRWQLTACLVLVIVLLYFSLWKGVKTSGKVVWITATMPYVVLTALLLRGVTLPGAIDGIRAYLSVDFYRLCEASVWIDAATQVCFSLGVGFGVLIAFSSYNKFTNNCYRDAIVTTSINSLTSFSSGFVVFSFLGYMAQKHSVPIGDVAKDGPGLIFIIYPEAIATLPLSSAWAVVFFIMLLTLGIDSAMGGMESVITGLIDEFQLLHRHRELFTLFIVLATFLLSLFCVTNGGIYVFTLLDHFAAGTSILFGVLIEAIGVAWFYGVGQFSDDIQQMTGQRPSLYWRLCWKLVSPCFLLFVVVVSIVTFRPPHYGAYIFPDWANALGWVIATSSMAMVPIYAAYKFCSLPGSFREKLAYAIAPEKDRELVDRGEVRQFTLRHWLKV
T1 sequence (P31645 whole entry): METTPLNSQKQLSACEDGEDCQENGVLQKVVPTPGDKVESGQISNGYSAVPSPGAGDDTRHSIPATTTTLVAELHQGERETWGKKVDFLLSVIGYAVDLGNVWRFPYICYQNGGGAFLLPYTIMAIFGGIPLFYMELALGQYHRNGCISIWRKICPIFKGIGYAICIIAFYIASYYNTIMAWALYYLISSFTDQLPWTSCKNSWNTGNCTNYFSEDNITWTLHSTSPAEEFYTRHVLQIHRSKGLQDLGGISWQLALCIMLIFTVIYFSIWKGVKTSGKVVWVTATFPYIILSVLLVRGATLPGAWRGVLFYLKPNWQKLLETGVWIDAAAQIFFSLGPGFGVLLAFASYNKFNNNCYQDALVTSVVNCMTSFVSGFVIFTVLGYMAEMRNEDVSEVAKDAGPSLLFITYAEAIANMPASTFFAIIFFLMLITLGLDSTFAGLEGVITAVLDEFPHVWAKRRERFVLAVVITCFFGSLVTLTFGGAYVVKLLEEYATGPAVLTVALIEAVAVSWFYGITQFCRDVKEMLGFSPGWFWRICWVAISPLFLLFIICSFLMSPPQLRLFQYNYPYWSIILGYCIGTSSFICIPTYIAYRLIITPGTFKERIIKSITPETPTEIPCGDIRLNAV

| SMILES | EC50 [1] [µM] | EC50 [3] [µM] | IC50 [5] [µM] | concentration that increases the allosteric impact on dissociation by 15 μM citalopram (FIG. 7) ([2]; 15 μM citalopram) [µM] | EC50 [7] [µM] | displacement of the radioligand (FIG. 3) ([1]; increasing concentrations, 60 minutes incubation at room temperature) | Stabilises dissociation of [3H]-citalopram: own effect (10 uM fluoxetine) (concentration which affects dissociation) [2] | Stabilises dissociation of [3H]-citalopram: 15 uM citalopram (concentration which affects dissociation) [2] | 5-HT uptake (effect) [4] | Binding of [3H]-citalopram (Bmax) [6] | 5-HT uptake (effect) ([4]; listed as PefaCl) |
| --- | --- | --- | --- | --- | --- | --- | --- | --- | --- | --- | --- |
| CCOS(=O)(=O)c1cccc2ccccc12 [1-NSC react. EtOH, 1-Naphthalene sulfonic acid ethyl ester] | 533 | 462 | 110 | – | – | – | 300 µM | 300 µM | Inhibition | Displace | – |
| O=S(=O)(Cl)c1ccccc1 [BSC, benzenesulfonyl chloride] | – | – | – | – | – | – | – | 3000 µM | Increase | No effect | – |
| O=S(=O)(Cl)Cc1ccccc1 [PMSC] | – | – | – | – | – | – | – | No effect | Increase | No effect | – |
| NCCc1ccc(S(=O)(=O)Cl)cc1 [PefaCI, 4-(2-Aminoethyl)benzenesulfonyle cloride] | 1650 | – | – | – | – | – | 2000 µM | 2000 µM | Increase | No effect | increases 5-HT uptake |
| Cc1ccc(S(N)(=O)=O)cc1 [TS1] | > 2000 | – | > 2000 | 2000 | – | – | 2000 µM | 200 µM | Increase | No effect | – |
| O=P(O)(O)c1ccccc1 [TS4] | > 2000 | – | > 2000 | – | – | – | – | – | – | – | – |
| O=S(=O)(c1ccccc1)c1ccccc1 [TS5] | > 2000 | – | > 2000 | – | – | – | – | – | – | – | – |
| COS(=O)(=O)c1ccc(C)cc1 [TS6] | > 2000 | – | > 2000 | – | – | – | No effect | 2000 µM | Increase | No effect | – |
| Cc1ccc(S(=O)(=O)N(C)N=O)cc1 [TS13] | > 2000 | – | > 2000 | – | – | – | 200 µM | 200 µM | Increase | displace | – |
| Nc1cccc2ccccc12 [TS18] | 1030 | – | 458 | – | – | – | – | – | – | – | – |
| Nc1cccc2c(N)cccc12 [TS19] | 950 | – | 422 | – | – | displaces the radioligand | – | – | – | – | – |
| Clc1cccc2ccccc12 [TS20] | > 2000 | – | 373 | – | – | – | 200 µM | 200 µM | Inhibition | No effect | – |
| O=[N+]([O-])c1cccc2ccccc12 [TS22] | > 2000 | – | 2.9 | – | – | – | 200 µM | 200 µM | Inhibition | No effect | – |
| Cc1ccc2ccccc2c1[N+](=O)[O-] [TS23] | 1020 | – | 15.9 | – | – | – | – | – | – | – | – |
| O=[N+]([O-])c1ccc(F)c2ccccc12 [TS25] | > 2000 | – | 25.9 | – | – | – | – | – | – | – | – |

Further lines, with some results ahead:

| EC50 [1] [µM] | EC50 [3] [µM] | IC50 [5] [µM] | concentration that increases the allosteric impact on dissociation by 15 μM citalopram (FIG. 7) ([2]; 15 μM citalopram) [µM] | EC50 [7] [µM] | displacement of the radioligand (FIG. 3) ([1]; increasing concentrations, 60 minutes incubation at room temperature) | SMILES | Stabilises dissociation of [3H]-citalopram: own effect (10 uM fluoxetine) (concentration which affects dissociation) [2] | Stabilises dissociation of [3H]-citalopram: 15 uM citalopram (concentration which affects dissociation) [2] | 5-HT uptake (effect) [4] | Binding of [3H]-citalopram (Bmax) [6] | 5-HT uptake (effect) ([4]; listed as PefaCl) |
| --- | --- | --- | --- | --- | --- | --- | --- | --- | --- | --- | --- |
| 1420 | > 2000 | 735 | – | > 2000 | – | OB(O)c1ccccc1 [TS3] | – | – | – | – | – |
| 1390 | – | > 2000 | – | – | – | CN(C)c1cccc2c(S(=O)(=O)Cl)cccc12 [TS7] | – | – | – | – | – |
| 990 | > 2000 | > 2000 | – | > 2000 | – | CC(=O)c1ccccc1 [TS9] | – | – | – | – | – |
| > 2000 | – | 1150 | – | – | – | NC(=O)c1ccccc1 [TS10] | – | – | – | – | – |
| – | – | > 2000 | – | – | – | Nc1cccc2cccc(S(=O)(=O)O)c12 [TS11] | – | – | – | – | – |
| 523 | 269 | – | – | 212 | – | Nc1ccc(S(=O)(=O)O)c2ccccc12 [TS12] | – | – | – | – | – |
| > 2000 | – | > 2000 | – | – | – | [C-]#[N+]CS(=O)(=O)c1ccc(C)cc1 [TS15] | 2000 µM | 2000 µM | No effect | No effect | – |
| 54 | 1.1 | 453 | – | 2.9 | – | Nc1c(O)cc(S(=O)(=O)O)c2ccccc12 [TS16] | – | – | – | – | – |
| 1050 | – | > 2000 | – | – | – | C=CS(=O)(=O)c1ccccc1 [TS17] | 2000 µM | 2000 µM | – | No effect | – |
| > 2000 | – | 60 | – | – | – | N#Cc1cccc2ccccc12 [TS21] | – | – | – | – | – |
| 185 | 220 | 275 | – | 138 | – | O=C(O)c1ccc2ccccc2c1O [TS27] | – | – | – | – | – |
| 276 | 510 | > 2000 | – | 288 | – | O=C(O)c1c(O)ccc2ccccc12 [TS28] | – | – | – | – | – |
